Among the data in ChEMBL document CHEMBL5465560, “Selectivity Literature for EUbOPEN Chemogenomic Library” (2024) are % of control values, retold here.

Test [1] has as its target T1, Serine/threonine-protein kinase Nek5 (Homo sapiens) (UniProt Q6P3R8).
T1 sequence (whole entry): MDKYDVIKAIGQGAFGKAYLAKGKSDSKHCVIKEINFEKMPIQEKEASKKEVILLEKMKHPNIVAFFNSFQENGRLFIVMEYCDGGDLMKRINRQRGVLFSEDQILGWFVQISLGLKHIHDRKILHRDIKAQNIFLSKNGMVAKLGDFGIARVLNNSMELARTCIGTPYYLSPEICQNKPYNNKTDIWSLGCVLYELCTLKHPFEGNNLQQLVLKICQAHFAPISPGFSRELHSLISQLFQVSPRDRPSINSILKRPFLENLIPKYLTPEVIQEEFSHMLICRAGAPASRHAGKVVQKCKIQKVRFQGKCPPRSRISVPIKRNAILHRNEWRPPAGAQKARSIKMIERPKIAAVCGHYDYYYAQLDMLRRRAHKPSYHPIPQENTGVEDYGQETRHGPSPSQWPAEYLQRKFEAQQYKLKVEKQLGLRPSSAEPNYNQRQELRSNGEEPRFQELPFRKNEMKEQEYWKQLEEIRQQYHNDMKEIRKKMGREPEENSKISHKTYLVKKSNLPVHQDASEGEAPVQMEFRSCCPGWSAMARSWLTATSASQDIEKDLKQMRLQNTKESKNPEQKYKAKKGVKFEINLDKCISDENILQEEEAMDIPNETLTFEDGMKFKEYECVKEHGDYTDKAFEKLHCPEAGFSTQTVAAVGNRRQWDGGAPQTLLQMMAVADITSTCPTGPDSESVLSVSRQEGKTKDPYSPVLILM
The note with it: at 10 µM.

Test [2] concerns the target Casein kinase I isoform alpha (Homo sapiens, UniProt P48729). Kind of test: Selectivity interaction (KinomeScan (DiscoverX)) EUB0000607a CSNK1A1. The note with it: at 10 µM.
Test [3] deals with T2, SNF-related serine/threonine-protein kinase (Homo sapiens) (UniProt Q9NRH2).
T2 sequence (whole entry): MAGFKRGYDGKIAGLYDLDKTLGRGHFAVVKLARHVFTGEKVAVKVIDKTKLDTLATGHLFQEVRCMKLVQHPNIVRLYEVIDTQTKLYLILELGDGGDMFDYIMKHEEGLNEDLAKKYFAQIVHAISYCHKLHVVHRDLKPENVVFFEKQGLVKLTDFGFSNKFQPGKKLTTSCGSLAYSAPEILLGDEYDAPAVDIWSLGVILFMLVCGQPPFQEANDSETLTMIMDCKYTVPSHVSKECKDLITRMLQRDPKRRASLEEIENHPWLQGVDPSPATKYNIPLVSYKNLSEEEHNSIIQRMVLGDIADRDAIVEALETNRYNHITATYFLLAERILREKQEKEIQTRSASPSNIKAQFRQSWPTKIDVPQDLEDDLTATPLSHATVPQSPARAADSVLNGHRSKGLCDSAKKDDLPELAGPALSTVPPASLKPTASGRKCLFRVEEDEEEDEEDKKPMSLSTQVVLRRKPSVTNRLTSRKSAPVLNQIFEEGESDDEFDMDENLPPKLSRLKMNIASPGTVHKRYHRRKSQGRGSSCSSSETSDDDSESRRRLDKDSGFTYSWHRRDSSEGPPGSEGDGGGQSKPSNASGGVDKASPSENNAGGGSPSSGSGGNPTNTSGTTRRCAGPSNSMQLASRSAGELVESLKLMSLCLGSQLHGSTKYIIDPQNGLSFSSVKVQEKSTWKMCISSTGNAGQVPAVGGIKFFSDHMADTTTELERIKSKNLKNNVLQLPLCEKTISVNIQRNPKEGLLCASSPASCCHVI
Kind of test: Selectivity interaction (KinomeScan (DiscoverX)) EUB0000045b SNRK.

The target of test [4] is Serine/threonine-protein kinase 10 (Homo sapiens) (UniProt O94804). Put plainly: Selectivity interaction (KinomeScan (DiscoverX)) EUB0000655a STK10. The conditions noted are these: at 10 µM.
Serine/threonine-protein kinase 10 (Homo sapiens), sequence (O94804 whole entry, looked up): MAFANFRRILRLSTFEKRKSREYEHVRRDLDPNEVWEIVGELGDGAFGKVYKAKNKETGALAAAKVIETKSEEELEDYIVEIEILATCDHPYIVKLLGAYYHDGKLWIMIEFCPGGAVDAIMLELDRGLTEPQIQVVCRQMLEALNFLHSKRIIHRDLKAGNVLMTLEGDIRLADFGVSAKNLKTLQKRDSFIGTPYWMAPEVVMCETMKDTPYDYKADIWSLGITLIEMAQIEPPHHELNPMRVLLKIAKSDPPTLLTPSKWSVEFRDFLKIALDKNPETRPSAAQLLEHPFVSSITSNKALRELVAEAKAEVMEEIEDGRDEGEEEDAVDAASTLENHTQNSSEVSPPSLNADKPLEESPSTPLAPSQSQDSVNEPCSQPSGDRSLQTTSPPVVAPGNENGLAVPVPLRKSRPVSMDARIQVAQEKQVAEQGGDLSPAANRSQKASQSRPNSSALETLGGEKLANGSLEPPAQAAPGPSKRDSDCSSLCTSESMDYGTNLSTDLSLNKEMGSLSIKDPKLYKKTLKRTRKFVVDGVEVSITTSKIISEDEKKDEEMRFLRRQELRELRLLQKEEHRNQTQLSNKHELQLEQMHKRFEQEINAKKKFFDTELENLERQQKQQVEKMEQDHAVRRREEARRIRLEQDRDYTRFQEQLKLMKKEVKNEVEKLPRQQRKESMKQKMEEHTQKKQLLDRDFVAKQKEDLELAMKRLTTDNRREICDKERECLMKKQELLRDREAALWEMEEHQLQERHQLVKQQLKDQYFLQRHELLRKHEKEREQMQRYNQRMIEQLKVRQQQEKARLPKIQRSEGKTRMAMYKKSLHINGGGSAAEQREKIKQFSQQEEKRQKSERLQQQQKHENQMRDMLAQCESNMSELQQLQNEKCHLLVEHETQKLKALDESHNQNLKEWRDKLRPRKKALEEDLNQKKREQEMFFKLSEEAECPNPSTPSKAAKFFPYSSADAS
The target in test [5] is T3, MAP/microtubule affinity-regulating kinase 4 (Homo sapiens) (UniProt Q96L34).
T3 sequence (whole entry): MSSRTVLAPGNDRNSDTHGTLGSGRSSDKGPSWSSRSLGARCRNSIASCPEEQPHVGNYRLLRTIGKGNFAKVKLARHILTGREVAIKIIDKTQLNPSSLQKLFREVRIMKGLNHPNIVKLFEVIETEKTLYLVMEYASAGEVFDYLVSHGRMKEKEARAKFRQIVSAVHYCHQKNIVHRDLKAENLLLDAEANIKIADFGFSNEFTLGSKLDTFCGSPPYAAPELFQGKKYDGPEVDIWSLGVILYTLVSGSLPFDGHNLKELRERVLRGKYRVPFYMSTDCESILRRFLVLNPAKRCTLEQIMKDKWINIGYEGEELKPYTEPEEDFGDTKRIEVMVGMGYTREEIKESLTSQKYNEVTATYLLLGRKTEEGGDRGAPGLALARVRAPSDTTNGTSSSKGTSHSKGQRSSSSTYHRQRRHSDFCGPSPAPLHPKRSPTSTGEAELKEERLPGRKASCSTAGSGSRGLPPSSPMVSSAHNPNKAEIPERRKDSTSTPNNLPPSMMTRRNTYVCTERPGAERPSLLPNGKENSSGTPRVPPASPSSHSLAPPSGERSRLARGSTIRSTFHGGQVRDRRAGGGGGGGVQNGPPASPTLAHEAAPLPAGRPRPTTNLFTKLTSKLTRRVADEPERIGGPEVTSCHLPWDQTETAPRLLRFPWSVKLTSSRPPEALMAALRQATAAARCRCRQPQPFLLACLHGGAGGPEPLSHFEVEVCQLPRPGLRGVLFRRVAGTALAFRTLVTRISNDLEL
Put plainly: Selectivity interaction (KinomeScan (DiscoverX)) EUB0001079a MARK4. The note with it: at 1 µM.

Molecules are shown by their SMILES.

Casein kinase I isoform alpha, sequence (P48729 2-337 limits assumed): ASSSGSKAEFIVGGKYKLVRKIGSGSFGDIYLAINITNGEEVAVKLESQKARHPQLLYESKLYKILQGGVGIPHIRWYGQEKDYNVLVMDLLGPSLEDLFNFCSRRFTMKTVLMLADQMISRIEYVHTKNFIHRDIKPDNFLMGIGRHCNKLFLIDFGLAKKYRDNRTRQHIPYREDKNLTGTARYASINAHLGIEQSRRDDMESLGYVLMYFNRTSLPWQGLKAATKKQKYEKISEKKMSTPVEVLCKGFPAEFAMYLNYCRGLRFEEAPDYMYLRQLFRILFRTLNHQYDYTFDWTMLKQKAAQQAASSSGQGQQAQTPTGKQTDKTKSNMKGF

Consider `CCN(CC)CCCCNc1ncc2cc(-c3cc(OC)cc(OC)c3)c(NC(=O)NC(C)(C)C)nc2n1`, for which, in test [1], the % of control was 100%.

In test [2], `CNC(=O)Nc1ccc(-c2nc(N3CC4CCC(C3)O4)c3cnn(C4CCC5(CC4)OCCO5)c3n2)cc1` gave a % of control of 100%.

On to `C=CC(=O)Nc1cc(-n2c(=O)ccc3cnc4ccc(-c5ccc(NS(C)(=O)=O)cc5)cc4c32)ccc1C`, for which the % of control in test [3] (at 1 µM) worked out at 100%; in test [3] (at 10 µM) it was 58%.

Regarding `CN(C)CCOc1ccc(-c2nc(-c3ccncc3)c(-c3ccc4c(c3)CC/C4=N\O)[nH]2)cc1`, the % of control in test [4] came to 0.6%.

For the molecule `Nc1cnc(N2CCc3cc(S(=O)(=O)Nc4c(F)cc(Cl)cc4F)cc(N4CCCC4=O)c32)nc1` [TP-020n], the % of control in test [5] worked out at 79%.
